Results published in PMC3179854 (Journal of the American Chemical Society, 2011).
Read-outs that look alike come from different tables or passages of the source.

Columns and labels:
[1] = system: pooled human liver microsomes; assay type: in vitro ADME; conditions: substrates dextromethorphan (CYP2D6), diclofenac (CYP2C9), phenacetin (CYP1A2), testosterone (CYP3A4)
CYP3A4 [2] = molecular target: T1, CYP3A4 (Homo sapiens, UniProt P08684); assay: Inhibition of CYP3A4-catalyzed testosterone metabolism in Baculosomes
T1 sequence (P08684 whole entry): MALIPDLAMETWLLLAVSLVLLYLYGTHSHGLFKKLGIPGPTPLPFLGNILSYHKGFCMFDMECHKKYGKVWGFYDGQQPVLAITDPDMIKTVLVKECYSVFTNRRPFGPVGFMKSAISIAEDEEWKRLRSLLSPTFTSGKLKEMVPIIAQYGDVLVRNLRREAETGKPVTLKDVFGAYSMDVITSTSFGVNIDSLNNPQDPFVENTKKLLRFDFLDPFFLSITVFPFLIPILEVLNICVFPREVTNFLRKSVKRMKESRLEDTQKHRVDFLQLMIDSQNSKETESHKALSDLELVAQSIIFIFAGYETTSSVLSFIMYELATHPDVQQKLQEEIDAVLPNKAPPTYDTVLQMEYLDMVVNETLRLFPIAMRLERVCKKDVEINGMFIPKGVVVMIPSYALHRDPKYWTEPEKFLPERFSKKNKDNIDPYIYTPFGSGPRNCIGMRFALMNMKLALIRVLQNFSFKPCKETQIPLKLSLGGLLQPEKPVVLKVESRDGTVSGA

CYP3A4 [3] = molecular target: T1, CYP3A4; conditions: read-out: IC50, literature value; cited from earlier work
CYP1A2 [4] = molecular target: T2, CYP1A2 (Homo sapiens, UniProt P05177); conditions: CYP1A2, substrate conc. 500 μM
T2 sequence (P05177 1-516): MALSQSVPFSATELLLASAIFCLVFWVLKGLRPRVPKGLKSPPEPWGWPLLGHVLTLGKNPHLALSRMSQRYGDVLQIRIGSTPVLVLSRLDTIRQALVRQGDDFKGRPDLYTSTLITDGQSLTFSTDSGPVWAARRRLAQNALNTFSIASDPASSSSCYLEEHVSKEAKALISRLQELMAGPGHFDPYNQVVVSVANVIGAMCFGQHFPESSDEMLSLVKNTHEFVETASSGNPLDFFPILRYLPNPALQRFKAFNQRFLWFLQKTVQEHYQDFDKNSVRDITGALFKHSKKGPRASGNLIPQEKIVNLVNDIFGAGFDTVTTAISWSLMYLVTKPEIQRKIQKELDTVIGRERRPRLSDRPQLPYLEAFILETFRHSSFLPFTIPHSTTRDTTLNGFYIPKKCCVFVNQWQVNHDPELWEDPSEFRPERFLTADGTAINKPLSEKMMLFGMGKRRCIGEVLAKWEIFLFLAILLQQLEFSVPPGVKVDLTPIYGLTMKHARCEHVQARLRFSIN

CYP1A2 [5] = molecular target: T2, CYP1A2; conditions: CYP1A2, substrate conc. 500 μM; remark: listed apart in the source
CYP2D6 [6] = molecular target: T3, CYP2D6 (Homo sapiens, UniProt P10635); assay: MesaPlate metabolic stability; assay type: in vitro ADME
T3 sequence (P10635 whole entry): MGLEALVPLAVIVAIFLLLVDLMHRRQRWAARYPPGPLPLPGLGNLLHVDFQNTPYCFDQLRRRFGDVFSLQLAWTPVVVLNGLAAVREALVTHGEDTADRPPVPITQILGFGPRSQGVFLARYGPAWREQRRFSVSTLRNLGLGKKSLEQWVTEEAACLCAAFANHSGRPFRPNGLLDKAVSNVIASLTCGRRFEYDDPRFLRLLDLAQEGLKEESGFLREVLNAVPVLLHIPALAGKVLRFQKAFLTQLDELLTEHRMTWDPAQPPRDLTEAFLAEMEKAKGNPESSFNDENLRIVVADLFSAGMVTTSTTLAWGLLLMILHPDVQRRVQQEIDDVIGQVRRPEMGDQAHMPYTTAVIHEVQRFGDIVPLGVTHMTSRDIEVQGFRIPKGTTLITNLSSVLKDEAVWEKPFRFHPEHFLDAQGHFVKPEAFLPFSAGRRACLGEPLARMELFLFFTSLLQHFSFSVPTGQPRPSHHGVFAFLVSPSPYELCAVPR

CYP2D6 [7] = molecular target: T3, CYP2D6; assay: Metabolic stability measured with chromatography; assay type: in vitro ADME
CYP2C9 [8] = molecular target: T4, CYP2C9 (Homo sapiens, UniProt P11712)
T4 sequence (P11712 whole entry): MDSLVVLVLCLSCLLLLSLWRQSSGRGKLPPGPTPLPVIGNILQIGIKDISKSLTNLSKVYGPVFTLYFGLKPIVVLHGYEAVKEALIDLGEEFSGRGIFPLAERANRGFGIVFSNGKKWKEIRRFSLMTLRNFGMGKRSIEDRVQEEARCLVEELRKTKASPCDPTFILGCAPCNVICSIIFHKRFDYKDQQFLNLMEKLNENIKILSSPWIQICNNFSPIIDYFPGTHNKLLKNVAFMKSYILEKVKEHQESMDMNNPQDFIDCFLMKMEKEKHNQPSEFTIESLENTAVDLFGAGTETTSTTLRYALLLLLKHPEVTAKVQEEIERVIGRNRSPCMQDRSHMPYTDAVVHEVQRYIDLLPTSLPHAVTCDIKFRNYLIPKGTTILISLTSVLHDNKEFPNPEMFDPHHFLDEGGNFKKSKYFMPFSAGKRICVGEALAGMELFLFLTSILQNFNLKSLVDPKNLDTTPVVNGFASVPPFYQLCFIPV

CYP2C9 [9] = molecular target: T4, CYP2C9; conditions: cited from earlier work
CYP2C9 [10] = molecular target: T4, CYP2C9; assay: in vitro
CYP3A4 [11] = molecular target: T1, CYP3A4; assay: MesaPlate metabolic stability

c1ccc(-n2ccnc2)cc1 [1-phenylimidazole]
measured rate of P450 oxidation in the presence of inhibitor [1]: much lower | IC50 (CYP3A4 [2]): 2390 ± 10 nM | IC50 (CYP3A4 [3]): 2700 nM

Cc1c[nH]c2ccccc12 [3-methylindole]
−rRH (metabolic stability), Chromatography (CYP1A2 [4]): 10.7 ± 0.8 nmol/min/nmol P450 | −rRH (metabolic stability), MesaPlate (CYP1A2 [5]): 15.8 ± 1.8 nmol/min/nmol P450

CN(C)CCC=C1c2ccccc2CCc2ccccc21 [Amitriptyline]
−rRH (metabolic stability), MesaPlate (CYP2D6 [6]; CYP2D6, substrate conc. 60 μM): 6.7 ± 0.8 nmol/min/nmol P450 | −rRH (metabolic stability), Chromatography (CYP2D6 [7]; CYP2D6, substrate conc. 60 μM): 3.8 ± 0.4 nmol/min/nmol P450

O=C(O)Cc1ccccc1Nc1c(Cl)cccc1Cl [Diclofenac]
kcat (MesaPlate) (CYP2C9 [8]): 0.183 ± 0.017 s⁻¹ | Km (CYP2C9 [9]): 5 µM | kcat (Literature) (CYP2C9 [9]): 0.483 s⁻¹ | Km (CYP2C9 [10]): 20 ± 7 µM

COCCc1ccc(OCC(O)CNC(C)C)cc1 (stereo not drawn) [Metoprolol]
−rRH (metabolic stability), MesaPlate (CYP2D6 [6]; CYP2D6, substrate conc. 100 μM): 12.2 ± 2.2 nmol/min/nmol P450 | −rRH (metabolic stability), Chromatography (CYP2D6 [7]; CYP2D6, substrate conc. 100 μM): 9.8 ± 2.3 nmol/min/nmol P450

C[C@]12CC[C@H]3[C@@H](CCC4=CC(=O)CC[C@@]43C)[C@@H]1CC[C@@H]2O [Testosterone]
kcat (MesaPlate) (CYP3A4 [11]; CYP3A4, Michaelis-Menten fit): 1.97 ± 0.13 s⁻¹ | Km (CYP3A4 [11]; human, Baculosomes with CYP3A4): 31 ± 7 µM
